Common to all, as to type: biochemical
Test [1] has as its target JNK2 (Homo sapiens, UniProt P45984). As to the kind of experiment: JNK2 kinase DELFIA (phosphorylation of biotinylated GST-ATF2). The settings on record: final ATP 4 uM, reported as range for a group. As for the experimental part:
(§1) Before initiation of kinase reactions, compounds were pre-incubated with the enzyme for 10 minutes. Pre-incubation reactions contained 50 mM HEPES pH 7.3, 10 mM MgCl2, 1 mM DTT, 75 mM NaCl, 1 mM EDTA, 1 mM EGTA, 0.01% CHAPS, 2 nM JNK1, 6 ug/mL biotinylated GST-ATF2, 0.1 mg/ml BSA, 5% DMSO and 0-100 μM compound in a total volume of 40 μL. After a 10 minute room temperature pre-incubation, 10 μL of 35 μM ATP was added to start the reaction (final concentration of ATP=7 uM). Reactions were incubated at room temperature for 30 minutes. A small aliquot (10 uL) was taken and quenched by adding into 190 uL of DELFIA Assay buffer containing 100 mM EDTA. The amount of phosphate transferred to biotinylated GST-ATF2 was measured using the Dissociation Enhanced Lanthanide Fluorescence Immuno-assay (DELFIA) from Perkin Elmer according to manufacturers protocol. Briefly, biotinylated GST-ATF2 was captured on streptavidin coated plates for 1 hour, washed twice, then incubated for 1 hour with a 1:1000 dilution of rabbit-anti-phospho-ATF2 antibody and a 1:3500 dilution of Europium-labeled anti-rabbit secondary antibody. Free antibody was removed with six washes, Europium was dissociated from the antibody, and Europium fluorescence was measured using an excitation wavelength of 340 nm and an emission wavelength of 615 nm. JNK2 and JNK3 kinase reactions were carried out similarly, with the exception that the final concentration of ATP was 4 uM and 2 uM, respectively.

For test [2], the target named is JNK3 (Homo sapiens, UniProt P53779). As to the kind of experiment: JNK3 kinase DELFIA (phosphorylation of biotinylated GST-ATF2). The following applies: final ATP 2 uM. As to the method:
as §1

The target of test [3] is JNK1 (Homo sapiens, UniProt P45983). As to the kind of experiment: JNK1 kinase DELFIA (phosphorylation of biotinylated GST-ATF2). As to the method:
as §1

Setting [4] is: DELFIA, 2 nM JNK1, final ATP 7 uM, 10 min pre-incubation, reported as range for a group.

“And” between values parts separate entries of the source, which are not always exact repeats. Equal values may be shown once. Read-outs that look alike come from different tables or passages of the source.

Chain of JNK1 (P45983 whole entry, species assumed): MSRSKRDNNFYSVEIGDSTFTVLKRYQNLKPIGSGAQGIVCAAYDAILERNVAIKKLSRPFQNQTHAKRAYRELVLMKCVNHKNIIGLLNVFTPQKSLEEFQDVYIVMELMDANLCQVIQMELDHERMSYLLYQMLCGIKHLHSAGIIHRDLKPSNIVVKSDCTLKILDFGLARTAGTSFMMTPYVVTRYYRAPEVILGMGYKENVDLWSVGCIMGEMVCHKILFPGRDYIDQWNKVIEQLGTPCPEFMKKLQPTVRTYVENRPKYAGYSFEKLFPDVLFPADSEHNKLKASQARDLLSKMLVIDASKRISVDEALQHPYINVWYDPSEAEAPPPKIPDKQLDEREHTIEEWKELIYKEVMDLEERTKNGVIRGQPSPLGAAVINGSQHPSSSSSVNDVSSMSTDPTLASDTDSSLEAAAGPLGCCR
Chain of JNK3 (P53779 whole entry, species assumed): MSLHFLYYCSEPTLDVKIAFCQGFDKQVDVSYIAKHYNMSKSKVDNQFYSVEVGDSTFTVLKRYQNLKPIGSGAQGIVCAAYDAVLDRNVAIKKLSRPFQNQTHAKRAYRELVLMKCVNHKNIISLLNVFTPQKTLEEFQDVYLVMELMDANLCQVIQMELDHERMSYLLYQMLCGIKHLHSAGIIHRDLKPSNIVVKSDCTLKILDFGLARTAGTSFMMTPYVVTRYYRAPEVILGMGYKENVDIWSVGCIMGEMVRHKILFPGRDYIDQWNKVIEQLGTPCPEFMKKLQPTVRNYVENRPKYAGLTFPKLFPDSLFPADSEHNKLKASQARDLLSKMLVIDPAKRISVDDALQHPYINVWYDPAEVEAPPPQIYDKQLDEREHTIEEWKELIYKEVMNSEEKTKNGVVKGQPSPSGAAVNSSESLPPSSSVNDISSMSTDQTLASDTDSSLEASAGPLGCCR
Chain of JNK2 (P45984 whole entry, species assumed): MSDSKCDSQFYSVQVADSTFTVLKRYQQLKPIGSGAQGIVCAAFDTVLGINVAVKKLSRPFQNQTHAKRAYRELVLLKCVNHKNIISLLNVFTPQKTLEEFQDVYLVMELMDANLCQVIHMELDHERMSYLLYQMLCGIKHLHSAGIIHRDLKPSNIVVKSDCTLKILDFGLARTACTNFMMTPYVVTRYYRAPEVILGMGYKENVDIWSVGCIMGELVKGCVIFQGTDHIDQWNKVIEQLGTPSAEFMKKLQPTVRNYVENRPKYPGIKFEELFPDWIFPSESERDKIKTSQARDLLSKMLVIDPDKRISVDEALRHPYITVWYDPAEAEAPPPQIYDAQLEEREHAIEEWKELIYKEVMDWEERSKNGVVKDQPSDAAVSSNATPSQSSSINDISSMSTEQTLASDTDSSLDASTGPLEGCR

Consider `Nc1nc2ccc(CNC(=O)c3cccn4c(C(=O)N[C@H](CO)c5ccccc5)c(-c5ccsc5)nc34)cc2s1` [Compound 16], for which the IC50 in test [1] is 4 to 46 nM; in test [2] it was 9 to 50 nM; in test [3] (setting [4]), 6 to 100 nM and 6 to 20 nM; in test [3] (read-out: JNK 1 IC50), 19 nM.

With `CC(C)(C)[C@@H](CO)NC(=O)c1c(-c2ccsc2)nc2c(C(=O)NCc3ccc4nc(N)sc4c3)cccn12` [Compound 17], the values for the IC50 in test [1], in test [2] and in test [3] (setting [4]) were 4 to 46 nM, 9 to 50 nM and 6 to 100 nM, respectively.

Regarding `C[C@@H](CO)NC(=O)c1c(-c2ccsc2)nc2c(C(=O)NCc3ccc4nc(N)sc4c3)cccn12` [Compound 22], the IC50 in test [1] was in the range of 52 to 94 nM; in test [2], 9 to 50 nM; in test [3] (setting [4]), 6 to 100 nM.

For `Nc1nc2ccc(CNC(=O)c3cccn4c(C(=O)NC[C@H]5CCCCC[C@H]5O)c(-c5ccsc5)nc34)cc2s1` [Compound 48], the IC50 in test [1] is 107 to 173 nM; in test [2] it was 209 to 479 nM; in test [3] (setting [4]), 6 to 100 nM.

On to `Nc1nc2ccc(CNC(=O)c3cccn4c(C(=O)N[C@H]5CC[C@H](O)CC5)c(-c5ccsc5)nc34)cc2s1` [Compound 56], for which the results for the half-inhibitory concentration (IC50) in test [1], in test [2] and in test [3] (setting [4]) were 107 to 173 nM, 118 to 174 nM and 6 to 100 nM, respectively.

With `CS(=O)(=O)c1ccc(CNC(=O)c2cccn3c(C(=O)N[C@H](CO)c4ccccc4)c(-c4ccsc4)nc23)cc1` [Compound 93], the values for the IC50 in test [1], in test [2] and in test [3] (setting [4]) were 52 to 94 nM, 54 to 98 nM and 6 to 100 nM, respectively.

As to `Cc1nc2cc(CNC(=O)c3cccn4c(C(=O)N[C@H](CO)CC(C)C)c(-c5ccsc5)nc34)ccc2[nH]1` [Compound 112], the IC50 in test [1] is 4 to 46 nM; in test [2] it was 9 to 50 nM; in test [3] (setting [4]), 6 to 20 nM and 6 to 10 nM; in test [3] (read-out: JNK 1 IC50), 8 nM.

On to `CC(C)C[C@@H](CO)NC(=O)c1c(-c2ccsc2)nc2c(C(=O)NCc3ccc4nc(C(C)C)[nH]c4c3)cccn12` [Compound 114], for which the IC50 in test [1] was 4 to 46 nM; in test [2], 9 to 50 nM; in test [3] (setting [4]), 6 to 20 nM.

Take `Cc1nc2ccc(CNC(=O)c3cccn4c(C(=O)N[C@H](CO)CC(C)C)c(-c5ccsc5)nc34)cc2s1` [Compound 130]: the IC50 in test [1] was 4 to 46 nM; in test [2], 9 to 50 nM; in test [3] (setting [4]), 6 to 100 nM.

Regarding `CC(C)C[C@@H](CO)NC(=O)c1c(-c2ccsc2)nc2c(C(=O)NCc3cnn(-c4ccccc4)c3)cccn12` [Compound 216], the IC50 in test [1] is 4 to 46 nM; in test [2] it was 9 to 50 nM; in test [3] (setting [4]), 6 to 20 nM.

Consider `Cc1cccc(-n2cc(CNC(=O)c3cccn4c(C(=O)N[C@H](CO)CC(C)C)c(-c5ccsc5)nc34)cn2)c1` [Compound 218], for which the IC50 in test [1] was in the range of 4 to 46 nM; in test [2], 9 to 50 nM; in test [3] (setting [4]), 6 to 20 nM.

For the compound `Cc1ccc(-n2cc(CNC(=O)c3cccn4c(C(=O)N[C@H](CO)CC(C)C)c(-c5ccsc5)nc34)cn2)cc1` [Compound 219], the IC50 in test [1] was 4 to 46 nM; in test [2], 9 to 50 nM; in test [3] (setting [4]) it was 6 to 20 nM.

`CC(C)C[C@H](CO)NC(=O)c1c(-c2ccsc2)nc2c(C(=O)NCc3ccc(N4CCCC4)nc3)cccn12` [Compound 291]: the IC50 in test [1] lay in the range of 107 to 173 nM; in test [2], 54 to 98 nM; in test [3] (setting [4]), 6 to 100 nM.

In the case of `CC(C)C[C@@H](CO)NC(=O)c1c(-c2ccsc2)nc2c(C(=O)NCc3ccnc(N4CCCC4)c3)cccn12` [Compound 296], the IC50 in test [1] is 4 to 46 nM; in test [2], 9 to 50 nM; in test [3] (setting [4]), 6 to 100 nM and 6 to 20 nM.

Regarding `CC(C)C[C@@H](CO)NC(=O)c1c(-c2ccsc2)nc2c(C(=O)NCc3ccc(N4CCN(C)CC4)nc3)cccn12` [Compound 299], the IC50 in test [1] lay in the range of 4 to 46 nM; in test [2], 9 to 50 nM; in test [3] (setting [4]), 6 to 100 nM.

In the case of `CC(C)C[C@@H](CO)NC(=O)c1c(-c2ccsc2)nc2c(C(=O)NCc3ccc(N4CCOCC4)nc3)cccn12` [Compound 300], the IC50 in test [1] was 4 to 46 nM; in test [2], 9 to 50 nM; in test [3] (setting [4]) it was 6 to 100 nM and 6 to 20 nM.

With `CC(C)C[C@@H](CO)NC(=O)c1c(-c2ccsc2)nc2c(C(=O)NCc3ccc(N4CCCCC4)nc3)cccn12` [Compound 301], the IC50 in test [1] fell in the range of 4 to 46 nM; in test [2] it was 9 to 50 nM; in test [3] (setting [4]), 6 to 100 nM.

As for `CC(C)C[C@@H](CO)NC(=O)c1c(-c2ccsc2)nc2c(C(=O)NCc3ccc(-c4cccnc4)nc3)cccn12` [Compound 306], the IC50 in test [1] is 4 to 46 nM; in test [2] it was 9 to 50 nM; in test [3] (setting [4]) it was 6 to 100 nM and 6 to 20 nM.

Regarding `CC(C)C[C@@H](CO)NC(=O)c1c(-c2ccsc2)nc2c(C(=O)NCc3ccc(-c4ccncc4)nc3)cccn12` [Compound 307], the IC50 is 4 to 46 nM in test [1]; 9 to 50 nM in test [2]; 6 to 100 nM and 6 to 20 nM in test [3] (setting [4]).

Take `Cc1ccn(-c2ccc(CNC(=O)c3cccn4c(C(=O)N[C@H](CO)CC(C)C)c(-c5ccsc5)nc34)cn2)n1` [Compound 323]: the IC50 in test [1] lay in the range of 4 to 46 nM; in test [2], 9 to 50 nM; in test [3] (setting [4]), 6 to 100 nM.

In the case of `CC(C)C[C@@H](CO)NC(=O)c1c(-c2ccsc2)nc2c(C(=O)NCc3ccc(N)nc3)cccn12` [Compound 327], the figures for the IC50 in test [1], in test [2] and in test [3] (setting [4]) were 4 to 46 nM, 54 to 98 nM and 6 to 100 nM, respectively.

For `CC(C)C[C@@H](CO)NC(=O)c1c(-c2ccccc2)nc2c(C(=O)NCc3ccc4nc(N)sc4c3)cccn12` [Compound 451], the IC50 in test [1] lay within 4 to 46 nM; in test [2] it was 9 to 50 nM; in test [3] (setting [4]) it was 6 to 100 nM.

Regarding `CC(C)C[C@@H](CO)NC(=O)c1c(-c2ccc(F)cc2)nc2c(C(=O)NCc3ccc4nc(N)sc4c3)cccn12` [Compound 452], the figures for the IC50 in test [1], in test [2] and in test [3] (setting [4]) were 52 to 94 nM, 54 to 98 nM and 6 to 100 nM, respectively.

As for `CCc1nc2c(C(=O)NCc3ccc4nc(N)sc4c3)cccn2c1C(=O)N[C@H](CO)CC(C)C` [Compound 456], the IC50 in test [1] was 4 to 46 nM; in test [2], 9 to 50 nM; in test [3] (setting [4]), 6 to 100 nM.

Regarding `CCc1nc2c(C(=O)NCc3ccc4nc(C)n(C)c4c3)cccn2c1C(=O)N[C@H](CO)CC(C)C` [Compound 463], the results for the IC50 in test [1], in test [2] and in test [3] (setting [4]) were 4 to 46 nM, 9 to 50 nM and 6 to 20 nM, respectively.

Consider `CC(C)C[C@@H](CO)NC(=O)c1c(-c2ccccn2)nc2c(C(=O)NCc3ccc4nc(N)sc4c3)cccn12` [Compound 478], for which the IC50 in test [1] was 4 to 46 nM; in test [2], 9 to 50 nM; in test [3] (setting [4]), 6 to 100 nM and 6 to 20 nM and 6 to 10 nM; in test [3] (read-out: JNK 1 IC50), 10 nM.

For the compound `Cc1nc2ccc(CNC(=O)c3cccn4c(C(=O)N[C@H](CO)CC(C)C)c(-c5ccccn5)nc34)cc2[nH]1` [Compound 479], the IC50 in test [1] was 4 to 46 nM; in test [2], 9 to 50 nM; in test [3] (setting [4]), 6 to 100 nM and 6 to 20 nM and 6 to 10 nM.

Regarding `Cc1nc2ccc(CNC(=O)c3cccn4c(C(=O)N[C@H](CO)CC(C)C)c(-c5ccccn5)nc34)cc2n1C` [Compound 483], the IC50 was 4 to 46 nM in test [1]; 9 to 50 nM in test [2]; 6 to 100 nM and 6 to 20 nM in test [3] (setting [4]); 11 nM in test [3] (read-out: JNK 1 IC50).

As for `CC(C)C[C@@H](CO)NC(=O)c1c(-c2cccs2)nc2c(C(=O)NCc3ccc4nc(N)sc4c3)cccn12` [Compound 542], the IC50 lay within 4 to 46 nM in test [1], 9 to 50 nM in test [2] and 6 to 100 nM in test [3] (setting [4]).

With `CC(C)C[C@@H](CO)NC(=O)c1c(-c2cc(F)cc(F)c2)nc2c(C(=O)NCc3ccc4nc(N)sc4c3)cccn12` [Compound 544], the IC50 in test [1] is 4 to 46 nM; in test [2] it was 9 to 50 nM; in test [3] (setting [4]), 6 to 100 nM; in test [3] (read-out: JNK 1 IC50), 23 nM.

Take `Cc1nc2ccc(CNC(=O)c3cccn4c(C(=O)N[C@H](CO)CC(C)C)c(C)nc34)cc2[nH]1` [Compound 599]: the values for the IC50 in test [1], in test [2] and in test [3] (setting [4]) were 4 to 46 nM, 9 to 50 nM and 6 to 100 nM, respectively.

As to `Cc1cccc(-n2cc(CNC(=O)c3cccn4c(C(=O)N[C@H](CO)CC(C)C)cnc34)cn2)c1` [Compound 605], the IC50 in test [1] was 4 to 46 nM; in test [2] it was 9 to 50 nM; in test [3] (setting [4]), 6 to 100 nM; in test [3] (read-out: JNK 1 IC50), 21 nM.

By IC50 is commonly meant the midpoint of a concentration-inhibition curve.

For the origin of these results see US20100298314A1, “NOVEL JNK INHIBITORS” (Schering Corporation, priority 2006, published 2010).
